Experimental data as given in PubChem BioAssay (NCI).
“And” between values parts separate entries of the source, which are not always exact repeats. Equal values may be shown once.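 Each compound was tested at five concentrations against cells in 96-well plates for 48 hours. GI50: concentration for 50% inhibition of growth. The concentration for full growth arrest is given as TGI.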

Assays:
Assay in all cases: inhibition of tumour cell growth, NCI panel, 48 h
RXF 393 renal = tested on: RXF 393 renal
HOP-92 NSCLC = tested on: HOP-92 NSCLC
NCI-H23 lung = tested on: NCI-H23 lung
U251 CNS = tested on: U251 CNS
SF-539 CNS = tested on: SF-539 CNS
UO-31 renal = tested on: UO-31 renal
786-0 renal = tested on: 786-0 renal
UACC-62 melanoma = tested on: UACC-62 melanoma
SNB-19 CNS = tested on: SNB-19 CNS
A498 renal = tested on: A498 renal

Compound | GI50 (RXF 393 renal) | TGI (RXF 393 renal) | GI50 (HOP-92 NSCLC) | TGI (HOP-92 NSCLC) | GI50 (NCI-H23 lung) | TGI (NCI-H23 lung) | GI50 (U251 CNS) | TGI (U251 CNS) | GI50 (SF-539 CNS) | TGI (SF-539 CNS) | GI50 (UO-31 renal) | TGI (UO-31 renal) | GI50 (786-0 renal) | TGI (786-0 renal) | GI50 (UACC-62 melanoma) | TGI (UACC-62 melanoma) | GI50 (SNB-19 CNS) | TGI (SNB-19 CNS) | GI50 (A498 renal) | TGI (A498 renal)
Cc1cn2c(=O)n(c1=O)Cc1ccccc1C2 | 19.5 µM | > 100 µM | > 100 µM | > 100 µM | > 100 µM | > 100 µM | > 100 µM | > 100 µM | > 100 µM | > 100 µM | 32.3 µM | > 100 µM | 68.7 µM | > 100 µM | 63.1 µM | > 100 µM | > 100 µM | > 100 µM | 35.1 µM | > 100 µM
COc1ccc2c(c1)C(=O)c1c-2n(CCCN2CCOCC2)c(=O)c2cc([N+](=O)[O-])ccc12 | < 0.01 µM | – | < 0.01 µM | < 0.01 µM | < 0.01 µM | < 0.01 µM | < 0.01 µM | 0.0598 µM | < 0.01 µM | < 0.01 µM | < 0.01 µM | 0.0572 µM | < 0.01 µM | – | < 0.01 µM | 0.0291 µM | < 0.01 µM | > 36.5 µM | < 0.01 µM | 0.117 µM
CNCCOC(=O)/C=C1/CCC2C(C(O)CC3C(C)(C(=O)OC)CCCC23C)C1C (stereo unspecified) | 0.0156 µM | 0.0521 µM | 0.0243 µM | 0.0764 µM | 0.0153 µM | 0.0355 µM | 0.0183 µM | 0.0341 µM | 0.0206 µM | 0.0408 µM | 0.0187 µM | 0.0372 µM | 0.0166 µM | 0.0341 µM | 0.0235 µM | 0.0559 µM | 0.0428 µM | 0.152 µM | 0.0161 µM | 0.0585 µM
Cc1cc(NC(=O)NC(=O)c2ccccc2NC(=O)CN)ccc1Oc1ncc(Br)cn1 | < 0.01 µM | – | – | 32.7 µM | 0.331 µM | 15.5 µM and 13.8 µM | 0.409 µM | 15 µM and 20.6 µM | 0.0762 µM and 0.0509 µM | 0.351 µM and 0.481 µM | 2.1 µM | 50.1 µM and > 100 µM | 0.4 µM | 24.2 µM and 17.8 µM | 0.112 µM | 19.8 µM and 15.4 µM | 0.336 µM | 26.3 µM and 16.4 µM | < 0.01 µM | –
COc1cc2c(cc1OCCCN1CCN(c3cc(=O)oc4c(C)c(OC)ccc34)CC1)N=C[C@@H]1CCCN1C2=O | 0.424 µM | 1.02 µM | 0.329 µM | 1.81 µM | 1.89 µM | 5.2 µM | 1.58 µM | > 100 µM | 1.73 µM | 7.97 µM | – | – | 1.05 µM | 9.62 µM | 1.36 µM | 2.87 µM | 2.52 µM | > 100 µM | 2.02 µM | 3.96 µM
COC(=O)[C@]12CC=C3O[C@@H]4OC5(CCCCC5)O[C@@H]4[C@H]3C1C(=O)C=CC2=O (stereo partly specified) | – | 25.8 µM | – | 33.1 µM | – | 33.6 µM | – | 36.1 µM | – | 34.8 µM | – | 30.8 µM | – | 30.8 µM | – | 30.2 µM | – | 66.2 µM | – | 33.6 µM
NC1=C(Cl)C(=O)c2ccccc2C1=O | – | 18.8 µM | – | 33.7 µM | – | 6.32 µM | – | 13.9 µM | – | 20.8 µM | – | 29.9 µM | – | 20.2 µM | – | 2.76 µM | – | 24.2 µM | – | 35.7 µM
COc1cc(-c2n/c(=C\c3c(O)[nH]c4ccccc34)cc3c2=Nc2ccccc2-3)cc(OC)c1OC | 0.436 µM | 5.34 µM | 0.385 µM | 6.28 µM | 0.39 µM | > 100 µM | 0.333 µM | 12.1 µM | 0.783 µM | 7.83 µM | 2.5 µM | > 100 µM | 0.864 µM | 31.7 µM | 0.707 µM | > 100 µM | 2.68 µM | > 100 µM | 0.854 µM | 6.25 µM
CO/C(=N\N=C\c1cccc(C(F)(F)F)c1)c1ccncc1 | – | 33.2 µM | – | > 100 µM | – | 42.6 µM | – | 80.2 µM | – | 37.1 µM | 6.09 µM | 40.8 µM | 8.71 µM | 24.8 µM | – | > 100 µM | 14.2 µM | 54.6 µM | – | 42.8 µM
O=C(O)CCCNS(=O)(=O)c1ccc2ccccc2c1 | – | > 100 µM | – | > 100 µM | – | > 100 µM | – | > 100 µM | – | > 100 µM | – | > 100 µM | – | > 100 µM | – | > 100 µM | – | > 100 µM | – | > 100 µM
Oc1cc(Cl)ccc1Cc1ccc(Cl)cc1O | 12.8 µM | 28.4 µM | 2.67 µM | 8.11 µM | 3.21 µM | 12.6 µM | 6.7 µM | 21.7 µM | 11.4 µM | 25.4 µM | 4.89 µM | 20.1 µM | 18.4 µM | 38 µM | 4.9 µM | 16.3 µM | 14.3 µM | 45.1 µM | 17.4 µM | 31.3 µM
O=CN1CCN(C=S)CC1 | – | > 100 µM | – | > 100 µM | – | > 100 µM | – | > 100 µM | – | > 100 µM | – | > 100 µM | – | > 100 µM | – | > 100 µM | – | > 100 µM | – | > 100 µM
CCOC(=O)/C(=C\c1ccc(F)cc1)C(C)=O | – | 34.8 µM | – | 44.3 µM | – | 46 µM | – | 40.7 µM | – | > 100 µM | – | 31.2 µM | – | 49.4 µM | – | 38.1 µM | – | > 100 µM | – | 34.9 µM
COc1ccc(C(O)/C(=C/n2ccnc2)c2ccccc2)cc1OC (stereo unspecified) | – | > 100 µM | – | > 100 µM | – | > 100 µM | – | > 100 µM | – | > 100 µM | – | > 100 µM | – | > 100 µM | – | > 100 µM | – | > 100 µM | – | > 100 µM
CN1CCC(n2[nH]c(-c3ccccc3)c(Cc3ccccc3)c2=O)CC1 | – | > 100 µM | – | > 100 µM | – | > 100 µM | – | > 100 µM | – | > 100 µM | – | > 100 µM | – | > 100 µM | – | > 100 µM | – | > 100 µM | – | > 100 µM
c1cncc(CNc2ncn[nH]2)c1 | – | > 100 µM | – | > 100 µM | – | > 100 µM | – | > 100 µM | – | > 100 µM | – | > 100 µM | – | > 100 µM | – | > 100 µM | – | > 100 µM | – | > 100 µM
NC(=O)c1c2c(cc3c(=O)c4ccccc4[nH]c13)CCCC2 | – | > 100 µM | – | > 100 µM | – | > 100 µM | – | > 100 µM | – | > 100 µM | – | > 100 µM | – | > 100 µM | – | > 100 µM | – | > 100 µM | – | > 100 µM
